Laboratory results reported in patent publication USRE38257E1, “Piperdine derivatives and hypotensives containing the same” (Ajinomoto Co., Inc., priority 1988, dated 2003).

Tested on: male spontaneously hypertensive rats
Test: Decrease in systolic blood pressure in spontaneously hypertensive rats after intravenous bolus injection, indirect (tail-cuff) method
Assay type: in vivo, rat
Details: for Decrease in systolic blood pressure (mmHg) time after administration (hour) 0.5: 0.5 hour after administration; for Decrease in systolic blood pressure (mmHg) time after administration (hour) 4: 4 hours after administration
Experimental: As test animals, four male spontaneously hypertensive rats (weight 400 to 440 g) that were sufficiently adapted for feeding and in which hypertension was confirmed were used.
Physiological saline aqueous solution containing 2.5% Nicolle and 2.5% ethanol of sample was intravenously administered by bolus injection at a dose of 1 ml per 1 kg of body weight. Systolic blood pressure after administration was measured by the indirect (tail-cuff) method.

Compound	Decrease in systolic blood pressure (mmHg) time after administration (hour) 0.5 (dose 10 mg/kg i.v. bolus)	Decrease in systolic blood pressure (mmHg) time after administration (hour) 4 (dose 10 mg/kg i.v. bolus)	further results
C1=Cc2ccccc2C(=C2CCN(CCCC3CCCNC3)CC2)c2ccccc21.Cl.Cl (stereo not shown) [Example 281, 3-(4-(5H-Dibenzo[a,d]cyclohepten-5-ylidene)-1-piperidinyl)-1-(3-piperidinyl)propane dihydrochloride]	−31 mmHg	−5 mmHg	
COc1cccc(CN2CCC(=C3c4ccccc4C=Cc4ccccc43)CC2)c1.Cl [Example 118, 4-(5H-Dibenzo[a,d]cyclohepten-5-ylidene)-1-(3-methoxybenzyl)piperidine hydrochloride]	−129 mmHg	−24 mmHg	
CC(=O)Nc1cccc(CCCN2CCC(=C3c4ccccc4C=Cc4ccccc43)CC2)c1.Cl [Example 316, 1-(3-Acetylaminophenyl)-3-(4-(5H-dibenzo[a,d]cyclohepten-5-ylidene)-1-piperidinyl)propane hydrochloride]			Decrease in systolic blood pressure (mmHg) time after administration (hour) 0.5 (dose 1 mg/kg i.v. bolus): −100 mmHg; Decrease in systolic blood pressure (mmHg) time after administration (hour) 4 (dose 1 mg/kg i.v. bolus): 8 mmHg
COc1cccc(C=CCN2CCC(=C3c4ccccc4C=Cc4ccccc43)CC2)c1OC.Cl [Example 344, 4-(5H-Dibenzo[a,d]cyclohepten-5-ylidene)-1-(2,3-dimethoxycinnamyl)piperidine hydrochloride]			Decrease in systolic blood pressure (mmHg) time after administration (hour) 0.5 (dose 1 mg/kg i.v. bolus): −123 mmHg; Decrease in systolic blood pressure (mmHg) time after administration (hour) 4 (dose 1 mg/kg i.v. bolus): −35 mmHg
C1=Cc2ccccc2C(=C2CCN(CCCCC3CCCCC3)CC2)c2ccccc21.Cl [Example 228]			Decrease in systolic blood pressure (mmHg) time after administration (hour) 0.5 (dose 3 mg/kg i.v. bolus): −112 mmHg; Decrease in systolic blood pressure (mmHg) time after administration (hour) 4 (dose 3 mg/kg i.v. bolus): −14 mmHg
Cl.FC(F)(F)c1cccc(CN2CCC(=C3c4ccccc4C=Cc4ccccc43)CC2)c1 [Example 115, 4-(5H-Dibenzo[a,d]cyclohepten-5-ylidene)-1-(3-trifluoromethylbenzyl)piperidine hydrochloride]	−53 mmHg	−19 mmHg	
Cl.O=[N+]([O-])c1cccc(C=CCN2CCC(=C3c4ccccc4C=Cc4ccccc43)CC2)c1 [Example 306, 4-(5H-Dibenzo[a,d]cyclohepten-5-ylidene)-1-(3-nitrocinnamyl)piperidine hydrochloride]	−138 mmHg	−37 mmHg	
Cl.O=C(NCCN1CCCCC1=C1c2ccccc2C=Cc2ccccc21)C1CCCCC1 [Example 243, N-(2-(5H-Dibenzo[a,d]cyclohepten-5-ylidene)-1-piperidinyl)ethyl cyclohexanecarboxamide hydrochloride]	−111 mmHg	−31 mmHg	
COc1cc2nc(N3CCC(=C4c5ccccc5C=Cc5ccccc54)CC3)nc(N)c2cc1OC.Cl.Cl [Example 266, 2-(4-(5H-Dibenzo[a,d]cyclohepten-5-ylidene)-1-piperidinyl)-4-amino-6,7-dimethoxyquinazoline dihydrochloride]	−133 mmHg	−77 mmHg	
Cl.O=C(Nc1ccc(C=CCN2CCC(=C3c4ccccc4C=Cc4ccccc43)CC2)cc1)C(F)(F)F [Example 380, 4-(5H-Dibenzo[a,d]cyclohepten-5-ylidene)-1-(4-trifluoroacetylaminocinnamyl)piperidine hydrochloride]			Decrease in systolic blood pressure (mmHg) time after administration (hour) 0.5 (dose 0.3 mg/kg i.v. bolus): −141 mmHg
C1=Cc2ccccc2C(=C2CCN(CCC3CCCCC3)CC2)c2ccccc21.Cl [Example 8, 1-Cyclohexyl-2-(4-(5H-dibenzo[a,d]cyclohepten-5-ylidene)-1-piperidinyl)ethane hydrochloride]	−95 mmHg	−21 mmHg	
Cl.O=[N+]([O-])c1ccccc1S(=O)(=O)NCCN1CCC(=C2c3ccccc3C=Cc3ccccc32)CC1 [Example 25, 4-(5H-Dibenzo[a,d]cyclohepten-5-ylidene)-1-(2-(2-nitrobenzenesulfonyl)aminoethyl)piperidine hydrochloride]	−8 mmHg	−7 mmHg	
Cl.O=S(=O)(CCCN1CCC(=C2c3ccccc3C=Cc3ccccc32)CC1)c1ccccc1 [Example 241, 3-(4-(5H-Dibenzo[a,d]cyclohepten-5-ylidene)-1-piperidinyl)-1-propyl phenylsulphone hydrochloride]	−73 mmHg	−4 mmHg	
CCCC(=O)Nc1ccc(C=CCN2CCC(=C3c4ccccc4C=Cc4ccccc43)CC2)cc1.Cl [Example 381, 1-(4-Butanoylaminocinnamyl)-4-(5H-Dibenzo[a,d]cyclohepten-5-ylidene)piperidine hydrochloride]			Decrease in systolic blood pressure (mmHg) time after administration (hour) 0.5 (dose 3 mg/kg i.v. bolus): −136 mmHg
COc1ccc(C(=O)CCCN2CCC(=C3c4ccccc4C=Cc4ccccc43)CC2)c(OC)c1OC.Cl [Example 171, 4-(4-(5H-Dibenzo[a,d]cyclohepten-5-ylidene)-1-piperidinyl)-2′,3′,4′-trimethoxybutyrophenone hydrochloride]	−122 mmHg	−8 mmHg	
Cl.Cl.Nc1ccc(CN2CCC(=C3c4ccccc4C=Cc4ccccc43)CC2)cc1 [Example 140, 1-(4-Aminobenzy)-4-(5H-Dibenzo[a,d]cyclohepten-5-ylidene)piperidine dihydrochloride]			Decrease in systolic blood pressure (mmHg) time after administration (hour) 0.5 (dose 3 mg/kg i.v. bolus): −113 mmHg; Decrease in systolic blood pressure (mmHg) time after administration (hour) 4 (dose 3 mg/kg i.v. bolus): −101 mmHg
CC(C)C(C#N)(CCCN1CCC(=C2c3ccccc3C=Cc3ccccc32)CC1)c1ccc(Cl)c(Cl)c1.Cl (stereo not shown) [Example 42, 5-(4-(5H-Dibenzo[a,d]cyclohepten-5-ylidene)-1-piperidinyl)-2-(3,4-dichlorophenyl)-2-isopropylvaleronitrile hydrochloride]	−66 mmHg	−14 mmHg	
COc1ccc(CN2CCC(=C3c4ccccc4C=Cc4ccccc43)CC2)cc1OC [Example 175, 4-(5H-Dibenzo[a,d]cyclohepten-5-ylidene)-1-(3,4-dimethoxybenzyl)piperidine]	−87 mmHg	−1 mmHg	
1-Acetoxy-4-(4-(5H-dibenzo[a,d]cyclohepten-5-ylidene)-1-piperidinyl)-(3,4-dimethoxy)phenylButane hydroxybutane hydrochloride [Example 206]	−61 mmHg	−27 mmHg	
C1=Cc2ccccc2C(=C2CCN(CC3CCc4ccccc4C3)CC2)c2ccccc21 (stereo not shown) [Example 225, 4-(5H-Dibenzo[a,d]cyclohepten-5-ylidene)-1-(1,2,3,4-tetrahydro-2-naphthylmethyl)piperidine]	−115 mmHg	−31 mmHg	
COc1cc2c(cc1OC)CC(CN1CCC(=C3c4ccccc4C=Cc4ccccc43)CC1)C2.Cl [Example 287, 2-(4-(5H-Dibenzo[a,d]cyclohepten-5-ylidene)-1-piperidinyl)methyl-5′,6′-dimethoxyindan hydrochloride]	−83 mmHg	−16 mmHg	
Cl.O=C(CCCN1CCC(=C2c3ccccc3C=Cc3ccccc32)CC1)N1CCCCC1 [Example 203, 1-(4-(4-(5H-Dibenzo[a,d]cyclohepten-5-ylidene)-1-piperidinyl)butanoyl)piperidine hydrochloride]			Decrease in systolic blood pressure (mmHg) time after administration (hour) 0.5 (dose 3 mg/kg i.v. bolus): −123 mmHg; Decrease in systolic blood pressure (mmHg) time after administration (hour) 4 (dose 3 mg/kg i.v. bolus): −58 mmHg
Cl.Fc1cccc(CN2CCC(=C3c4ccccc4C=Cc4ccccc43)CC2)c1 [Example 112, 4-(5H-Dibenzo[a,d]cyclohepten-5-ylidene)-1-(3-fluorobenzyl)piperidine hydrochloride]	−16 mmHg	0 mmHg	
Cl.OCC1(CCCCN2CCC(=C3c4ccccc4C=Cc4ccccc43)CC2)CCCCC1 [Example 272, 1-(4-(4-(5H-Dibenzo[a,d]cyclohepten-5-ylidene)-1-piperidinyl)-1-butyl)-1-hydroxymethylcyclohexane hydrochloride]	−76 mmHg	−3 mmHg	
CCCCCCCCN1CCC(=C2c3ccccc3C=Cc3ccccc32)CC1.Cl [Example 2, 4-(5H-Dibenzo[a,d]cyclohepten-5-ylidene)-1-octylpiperidine hydrochloride]	−125 mmHg	−34 mmHg	
Cc1ccccc1C(=O)N1CCC(=C2c3ccccc3C=Cc3ccccc32)CC1 [Example 190, 4-(5H-Dibenzo[a,d]cyclohepten-5-ylidene)-1-(2-methylbenzoyl)piperidine]	−11 mmHg	−15 mmHg	
Cl.O=[N+]([O-])c1ccccc1C=CCN1CCC(=C2c3ccccc3C=Cc3ccccc32)CC1 [Example 230, 4-(5H-Dibenzo[a,d]cyclohepten-5-ylidene)-1-(2-nitrocinnamyl)piperidine hydrochloride]			Decrease in systolic blood pressure (mmHg) time after administration (hour) 0.5 (dose 3 mg/kg i.v. bolus): −131 mmHg; Decrease in systolic blood pressure (mmHg) time after administration (hour) 4 (dose 3 mg/kg i.v. bolus): −91 mmHg
